Experiments:
[1] = target: wild-type opsin (Homo sapiens, UniProt P08100); assay: 9-cis-retinal binding to opsin; conditions: 3.0 μM purified wild-type opsin
[2] = system: P23H, E181K and T17M rhodopsin; conditions: cells; cited from earlier work
[3] = system: opsin; conditions: cited from earlier work
[4] = system: P23H rhodopsin; conditions: P23H knock-in mice; cited from earlier work
[5] = system: P23H Rho transgenic rats; conditions: cited from earlier work

CC1=C(/C=C/C(C)=C\C=C\C(C)=C\C=O)C(C)(C)CCC1 [9-cis-retinal]
concentration at which opsin was saturated [1]: 5 µM

CC(=C/C(=O)O)/C=C/C=C(\C)C1C=C2C(C)(C)CCCC2(C)O1 (stereo not drawn) [13-cis-5,8-ERA]
folding and transport of rhodopsin mutants [2]: more effective in promoting the folding and transport of the P23H and E181K mutations than it was for the T17M mutation | competition with 9-cis-retinal for binding to opsin [3]: appeared to compete with 9-cis-retinal for binding to opsin

CN(C)C(=N)N=C(N)N [metformin]
transport of P23H rhodopsin to outer segments [4]: increased transport of P23H rhodopsin to outer segments | retinal degeneration [5]: increased retinal degeneration

— paper PMC6910612 (Translational Vision Science & Technology, 2019)
